The structures appear in SMILES notation.

Assay [1] deals with Epidermal growth factor receptor (Homo sapiens) (UniProt P00533). As to the kind of experiment: Inhibition of EGFR expressed in Escherichia coli or baculovirus-infected insect cells at 400 uM by TR-FRET assay.
Assay [2] has as its target Mitogen-activated protein kinase 8 (Homo sapiens, UniProt P45983). As to the kind of experiment: Inhibition of JNK1 expressed in Escherichia coli or baculovirus-infected insect cells at 667 uM by TR-FRET assay.
The target of assay [3] is RAC-beta serine/threonine-protein kinase (Homo sapiens) (UniProt P31751). As to the kind of experiment: Inhibition of AKT2 expressed in Escherichia coli or baculovirus-infected insect cells using gamma-[33P]ATP at 400 uM by scintillation proximity assay.
Sequence of RAC-beta serine/threonine-protein kinase (Homo sapiens) (P31751 whole entry, canonical isoform): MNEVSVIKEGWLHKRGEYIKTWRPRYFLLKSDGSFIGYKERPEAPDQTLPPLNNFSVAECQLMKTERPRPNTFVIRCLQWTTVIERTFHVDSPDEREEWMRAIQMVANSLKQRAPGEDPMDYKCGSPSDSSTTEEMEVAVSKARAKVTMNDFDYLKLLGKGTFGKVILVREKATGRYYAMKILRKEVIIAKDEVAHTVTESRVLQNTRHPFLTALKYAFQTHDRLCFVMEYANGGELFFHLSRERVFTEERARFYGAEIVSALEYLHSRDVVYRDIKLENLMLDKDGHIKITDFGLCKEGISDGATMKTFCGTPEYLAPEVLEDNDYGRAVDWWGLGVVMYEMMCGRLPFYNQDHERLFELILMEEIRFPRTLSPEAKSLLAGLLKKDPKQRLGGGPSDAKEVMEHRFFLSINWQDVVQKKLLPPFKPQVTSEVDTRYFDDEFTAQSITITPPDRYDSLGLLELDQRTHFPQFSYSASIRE
Assay [4] concerns the target T1, Phosphatidylinositol 4,5-bisphosphate 3-kinase catalytic subunit delta isoform (Homo sapiens) (UniProt O00329).
T1 sequence (whole entry): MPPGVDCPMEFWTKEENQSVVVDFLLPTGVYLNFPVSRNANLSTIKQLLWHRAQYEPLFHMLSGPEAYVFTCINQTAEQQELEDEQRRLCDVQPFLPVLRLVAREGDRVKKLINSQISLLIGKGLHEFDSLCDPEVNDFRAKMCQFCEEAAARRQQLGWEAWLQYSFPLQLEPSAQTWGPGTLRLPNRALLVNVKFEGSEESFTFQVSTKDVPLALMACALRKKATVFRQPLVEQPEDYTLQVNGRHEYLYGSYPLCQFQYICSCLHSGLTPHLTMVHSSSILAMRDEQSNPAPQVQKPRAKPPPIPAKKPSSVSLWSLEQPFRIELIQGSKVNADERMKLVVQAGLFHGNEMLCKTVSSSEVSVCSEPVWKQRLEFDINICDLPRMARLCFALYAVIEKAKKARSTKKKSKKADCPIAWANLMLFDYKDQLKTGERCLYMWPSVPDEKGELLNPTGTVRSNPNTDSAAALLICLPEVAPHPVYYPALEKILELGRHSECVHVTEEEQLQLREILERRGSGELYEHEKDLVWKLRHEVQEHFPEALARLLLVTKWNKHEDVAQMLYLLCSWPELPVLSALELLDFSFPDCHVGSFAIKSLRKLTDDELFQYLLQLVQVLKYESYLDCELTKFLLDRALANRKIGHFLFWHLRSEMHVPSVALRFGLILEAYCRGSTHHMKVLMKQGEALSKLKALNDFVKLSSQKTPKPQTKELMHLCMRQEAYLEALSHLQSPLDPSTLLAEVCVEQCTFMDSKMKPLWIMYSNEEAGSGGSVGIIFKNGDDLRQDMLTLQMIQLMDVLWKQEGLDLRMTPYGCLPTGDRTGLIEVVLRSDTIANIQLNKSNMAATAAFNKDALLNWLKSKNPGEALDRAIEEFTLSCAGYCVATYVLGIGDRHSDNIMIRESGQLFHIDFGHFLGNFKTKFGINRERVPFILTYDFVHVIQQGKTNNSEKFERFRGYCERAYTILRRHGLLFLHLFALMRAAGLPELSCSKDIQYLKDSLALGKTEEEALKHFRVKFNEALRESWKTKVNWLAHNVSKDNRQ
Put plainly: Inhibition of PI3Kdelta expressed in Escherichia coli or baculovirus-infected insect cells using gamma-[33P]ATP at 400 uM by scintillation proximity assay.

The target in assay [5] is Focal adhesion kinase 1 (Homo sapiens) (UniProt Q05397). As to the kind of experiment: Inhibition of FAK expressed in Escherichia coli or baculovirus-infected insect cells at 400 uM by TR-FRET assay.
Assay [6] addresses Receptor tyrosine-protein kinase erbB-2 (Homo sapiens) (UniProt P04626). As to the kind of experiment: Inhibition of ErbB2 expressed in Escherichia coli or baculovirus-infected insect cells at 400 uM by TR-FRET assay.
Assay [7] concerns the target Tyrosine-protein kinase Fes/Fps (Homo sapiens) (UniProt P07332). Put plainly: Inhibition of FES expressed in Escherichia coli or baculovirus-infected insect cells using ATP as substrate at 400 uM by fluorescence polarization assay.
The target of assay [8] is MAP kinase-activated protein kinase 2 (Homo sapiens) (UniProt P49137). As to the kind of experiment: Inhibition of MK2 expressed in Escherichia coli or baculovirus-infected insect cells at 667 uM by IMAP assay.
Sequence of MAP kinase-activated protein kinase 2 (Homo sapiens) (P49137 whole entry, looked up): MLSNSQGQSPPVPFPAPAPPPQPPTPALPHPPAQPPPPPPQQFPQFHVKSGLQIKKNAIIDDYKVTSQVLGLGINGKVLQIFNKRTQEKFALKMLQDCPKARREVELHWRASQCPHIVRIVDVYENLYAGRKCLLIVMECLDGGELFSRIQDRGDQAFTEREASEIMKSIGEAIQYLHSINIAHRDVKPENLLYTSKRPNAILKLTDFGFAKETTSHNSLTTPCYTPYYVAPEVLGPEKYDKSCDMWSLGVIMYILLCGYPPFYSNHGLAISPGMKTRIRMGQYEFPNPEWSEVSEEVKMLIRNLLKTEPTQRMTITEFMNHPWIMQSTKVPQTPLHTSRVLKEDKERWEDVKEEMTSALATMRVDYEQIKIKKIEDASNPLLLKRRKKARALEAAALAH
For assay [9], the target named is T2, Aurora kinase A (Homo sapiens) (UniProt O14965).
T2 sequence (whole entry): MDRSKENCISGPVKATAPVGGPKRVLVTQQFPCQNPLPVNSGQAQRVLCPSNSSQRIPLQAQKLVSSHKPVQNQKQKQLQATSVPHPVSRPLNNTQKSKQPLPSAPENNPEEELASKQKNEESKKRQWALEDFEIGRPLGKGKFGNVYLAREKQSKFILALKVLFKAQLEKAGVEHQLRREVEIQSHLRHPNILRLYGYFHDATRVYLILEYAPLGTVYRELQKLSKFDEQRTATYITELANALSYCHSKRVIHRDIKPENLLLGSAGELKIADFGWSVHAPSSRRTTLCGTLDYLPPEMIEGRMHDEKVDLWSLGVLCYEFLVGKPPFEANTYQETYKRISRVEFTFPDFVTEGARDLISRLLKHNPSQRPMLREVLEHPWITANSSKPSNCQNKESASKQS
Put plainly: Inhibition of AurA expressed in Escherichia coli or baculovirus-infected insect cells at 400 uM by IMAP assay.

Assay [10] deals with Receptor tyrosine-protein kinase erbB-4 (Homo sapiens) (UniProt Q15303). Put plainly: Inhibition of ErbB4 expressed in Escherichia coli or baculovirus-infected insect cells at 400 to 667 uM by TR-FRET assay.
Sequence of Receptor tyrosine-protein kinase erbB-4 (Homo sapiens) (Q15303 whole entry): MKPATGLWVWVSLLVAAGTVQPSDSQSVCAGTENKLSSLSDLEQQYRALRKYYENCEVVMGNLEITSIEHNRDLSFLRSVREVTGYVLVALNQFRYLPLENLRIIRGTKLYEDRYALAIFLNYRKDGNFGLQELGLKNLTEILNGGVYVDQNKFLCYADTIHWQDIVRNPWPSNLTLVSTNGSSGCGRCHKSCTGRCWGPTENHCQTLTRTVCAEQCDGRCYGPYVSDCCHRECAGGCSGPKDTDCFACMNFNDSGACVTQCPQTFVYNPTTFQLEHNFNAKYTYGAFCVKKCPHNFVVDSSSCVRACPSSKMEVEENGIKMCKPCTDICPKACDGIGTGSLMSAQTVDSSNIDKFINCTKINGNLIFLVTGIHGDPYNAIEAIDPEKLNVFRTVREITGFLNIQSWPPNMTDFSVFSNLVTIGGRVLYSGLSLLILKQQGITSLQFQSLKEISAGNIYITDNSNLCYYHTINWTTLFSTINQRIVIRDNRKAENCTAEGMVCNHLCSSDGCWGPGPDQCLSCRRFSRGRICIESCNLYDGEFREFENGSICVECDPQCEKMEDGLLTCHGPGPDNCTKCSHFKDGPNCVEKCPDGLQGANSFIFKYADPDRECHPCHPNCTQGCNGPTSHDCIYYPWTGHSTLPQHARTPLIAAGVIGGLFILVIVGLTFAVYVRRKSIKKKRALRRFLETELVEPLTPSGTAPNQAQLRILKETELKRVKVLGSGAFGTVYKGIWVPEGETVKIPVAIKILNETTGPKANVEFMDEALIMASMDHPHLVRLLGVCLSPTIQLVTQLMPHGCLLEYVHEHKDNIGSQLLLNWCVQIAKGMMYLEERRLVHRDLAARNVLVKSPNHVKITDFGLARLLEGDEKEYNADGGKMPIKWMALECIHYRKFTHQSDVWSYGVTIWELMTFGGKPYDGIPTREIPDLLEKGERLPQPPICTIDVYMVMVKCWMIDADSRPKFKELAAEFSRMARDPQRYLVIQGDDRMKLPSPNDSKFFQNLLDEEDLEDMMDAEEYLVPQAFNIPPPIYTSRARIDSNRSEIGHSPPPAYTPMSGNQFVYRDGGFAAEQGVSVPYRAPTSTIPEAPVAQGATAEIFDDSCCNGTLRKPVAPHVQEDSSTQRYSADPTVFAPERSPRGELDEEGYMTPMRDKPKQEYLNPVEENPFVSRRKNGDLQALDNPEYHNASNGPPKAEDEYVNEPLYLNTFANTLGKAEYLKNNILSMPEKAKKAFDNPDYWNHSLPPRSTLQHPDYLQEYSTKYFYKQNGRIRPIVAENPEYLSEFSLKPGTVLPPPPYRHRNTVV
Assay [11] concerns the target Glycogen synthase kinase-3 beta (Homo sapiens) (UniProt P49841). Put plainly: Inhibition of GSK3-beta expressed in Escherichia coli or baculovirus-infected insect cells using ATP as substrate at 667 uM by fluorescence polarization assay.
For assay [12], the target named is Serine/threonine-protein kinase PAK 2 (Homo sapiens) (UniProt Q13177). As to the kind of experiment: Inhibition of PAK2 expressed in Escherichia coli or baculovirus-infected insect cells at 400 uM by IMAP assay.
For assay [13], the target named is Receptor-interacting serine/threonine-protein kinase 2 (Homo sapiens) (UniProt O43353). Put plainly: Inhibition of RIP2 expressed in Escherichia coli or baculovirus-infected insect cells at 400 uM by fluorescence polarization assay.
Sequence of Receptor-interacting serine/threonine-protein kinase 2 (Homo sapiens) (O43353 whole entry): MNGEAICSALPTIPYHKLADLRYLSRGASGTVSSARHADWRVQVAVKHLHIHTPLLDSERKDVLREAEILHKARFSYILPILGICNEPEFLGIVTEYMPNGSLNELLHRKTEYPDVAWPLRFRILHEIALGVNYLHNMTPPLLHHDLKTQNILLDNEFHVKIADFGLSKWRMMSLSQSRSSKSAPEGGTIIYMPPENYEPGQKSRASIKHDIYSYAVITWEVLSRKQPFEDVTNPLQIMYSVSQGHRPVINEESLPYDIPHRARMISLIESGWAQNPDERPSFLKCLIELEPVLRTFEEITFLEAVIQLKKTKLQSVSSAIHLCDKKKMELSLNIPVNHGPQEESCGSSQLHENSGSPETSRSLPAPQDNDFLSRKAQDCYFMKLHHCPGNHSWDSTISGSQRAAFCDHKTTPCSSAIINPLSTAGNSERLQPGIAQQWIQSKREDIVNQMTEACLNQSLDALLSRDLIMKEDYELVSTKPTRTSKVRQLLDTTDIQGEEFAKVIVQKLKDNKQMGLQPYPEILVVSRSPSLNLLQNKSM
Assay [14] deals with Aurora kinase B (Homo sapiens) (UniProt Q96GD4). As to the kind of experiment: Inhibition of AurB expressed in Escherichia coli or baculovirus-infected insect cells at 400 uM by IMAP assay.

Sequence of Tyrosine-protein kinase Fes/Fps (Homo sapiens) (P07332 whole entry): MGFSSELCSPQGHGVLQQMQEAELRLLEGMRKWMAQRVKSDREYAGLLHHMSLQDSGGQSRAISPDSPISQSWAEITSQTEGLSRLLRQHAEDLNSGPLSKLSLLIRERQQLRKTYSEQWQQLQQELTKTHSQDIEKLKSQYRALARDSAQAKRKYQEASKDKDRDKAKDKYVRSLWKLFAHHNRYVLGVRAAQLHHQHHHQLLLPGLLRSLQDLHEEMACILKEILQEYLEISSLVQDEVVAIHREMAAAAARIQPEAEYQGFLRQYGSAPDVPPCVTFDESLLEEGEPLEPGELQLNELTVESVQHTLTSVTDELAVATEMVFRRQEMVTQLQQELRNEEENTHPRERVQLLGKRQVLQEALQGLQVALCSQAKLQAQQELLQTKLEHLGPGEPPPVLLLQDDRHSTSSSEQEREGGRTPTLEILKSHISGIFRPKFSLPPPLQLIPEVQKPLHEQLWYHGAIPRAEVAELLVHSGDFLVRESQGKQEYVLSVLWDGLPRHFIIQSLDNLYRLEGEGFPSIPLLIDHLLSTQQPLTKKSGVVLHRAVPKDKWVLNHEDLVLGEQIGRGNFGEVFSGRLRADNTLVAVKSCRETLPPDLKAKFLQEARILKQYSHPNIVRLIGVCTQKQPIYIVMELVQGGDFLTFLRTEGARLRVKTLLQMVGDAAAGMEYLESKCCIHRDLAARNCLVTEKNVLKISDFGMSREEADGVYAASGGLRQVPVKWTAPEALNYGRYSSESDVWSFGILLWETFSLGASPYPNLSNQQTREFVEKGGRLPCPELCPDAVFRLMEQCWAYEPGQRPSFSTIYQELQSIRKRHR
Sequence of Receptor tyrosine-protein kinase erbB-2 (Homo sapiens) (P04626 whole entry): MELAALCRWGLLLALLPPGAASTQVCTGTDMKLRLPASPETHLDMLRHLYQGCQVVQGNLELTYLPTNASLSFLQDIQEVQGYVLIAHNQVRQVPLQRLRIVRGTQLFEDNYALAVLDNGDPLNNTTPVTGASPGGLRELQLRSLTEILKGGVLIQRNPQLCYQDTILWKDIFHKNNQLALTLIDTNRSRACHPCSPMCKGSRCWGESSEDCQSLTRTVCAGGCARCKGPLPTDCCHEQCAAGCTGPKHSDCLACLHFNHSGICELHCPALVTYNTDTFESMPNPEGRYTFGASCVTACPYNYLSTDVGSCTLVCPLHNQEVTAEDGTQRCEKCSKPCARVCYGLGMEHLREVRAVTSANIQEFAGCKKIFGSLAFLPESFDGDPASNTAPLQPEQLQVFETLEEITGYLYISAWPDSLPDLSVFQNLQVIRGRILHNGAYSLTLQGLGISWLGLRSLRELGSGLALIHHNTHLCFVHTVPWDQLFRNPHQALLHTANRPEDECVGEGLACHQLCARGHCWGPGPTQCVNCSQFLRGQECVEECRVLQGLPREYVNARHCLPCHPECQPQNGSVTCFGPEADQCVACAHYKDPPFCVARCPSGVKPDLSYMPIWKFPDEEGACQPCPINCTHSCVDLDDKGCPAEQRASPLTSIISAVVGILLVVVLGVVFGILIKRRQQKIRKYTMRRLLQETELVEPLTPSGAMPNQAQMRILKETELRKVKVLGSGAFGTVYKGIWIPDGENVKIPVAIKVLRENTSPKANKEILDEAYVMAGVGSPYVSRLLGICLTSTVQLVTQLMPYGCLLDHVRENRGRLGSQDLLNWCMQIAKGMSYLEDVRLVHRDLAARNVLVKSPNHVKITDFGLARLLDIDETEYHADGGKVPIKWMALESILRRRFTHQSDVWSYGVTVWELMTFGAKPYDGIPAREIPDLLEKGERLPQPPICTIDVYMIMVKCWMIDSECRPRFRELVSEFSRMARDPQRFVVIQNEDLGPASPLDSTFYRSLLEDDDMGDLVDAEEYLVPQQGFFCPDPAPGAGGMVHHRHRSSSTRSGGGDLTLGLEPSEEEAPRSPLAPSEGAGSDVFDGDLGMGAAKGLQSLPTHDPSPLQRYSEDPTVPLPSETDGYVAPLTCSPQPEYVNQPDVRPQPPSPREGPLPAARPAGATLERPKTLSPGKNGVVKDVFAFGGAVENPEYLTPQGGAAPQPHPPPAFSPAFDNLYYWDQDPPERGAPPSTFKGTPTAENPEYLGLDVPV

For `Nc1[nH]cnc2ncnc1-2`, the inhibition in assay [1] amounted to 11%; in assay [2] it was 33%; in [3], 7%; in assay [4] it was 68%; in [5] it was 5%; in assay [6], 3%. Moreover, the inhibition in assay [7] turned out to be 20%; in assay [8], 80%; in assay [9], 90%; in [10], 9%; in assay [11], 57%; in [12] it was 36%. The inhibition in [13] is 11%; in [14], 99%.

`c1n[nH]c2c1CCCC2`: the inhibition turned out to be 25% in assay [1]; 13% in assay [2]; 13% in assay [3]; 16% in [4]; 1% in assay [5]; 0% in [6]. Also, the inhibition in assay [7] was determined as 14%; in assay [8] it was 24%; in [9] it was 27%; in [10] it was 0%; in assay [11], 41%; in [12], 3%. The inhibition in assay [13] was 2%; in assay [14], 22%.

Consider `c1ccc2[nH]ncc2c1` [INDAZOLE], for which the inhibition in assay [1] stood at 0%; in assay [2], 13%; in assay [3], 12%; in assay [4], 10%; in [5], 3%; in assay [6], 0%. In addition, the inhibition in [7] was 1%; in assay [9] it was 37%; in assay [10], 5%; in assay [11] it was 35%; in [12] it was 5%; in assay [13], 0%. The inhibition in assay [14] stood at 81%.

As for `O=C(Nc1ccccc1)Nc1ccccc1`, the inhibition came to 0% in [1]; 0% in [2]; 16% in assay [3]; 11% in assay [4]; 30% in assay [5]; 2% in assay [6]. For the same compound, the inhibition came out at 13% in assay [7]; 18% in [8]; 0% in [9]; 0% in assay [10]; 11% in assay [11]; 5% in [12]. Moreover, the results for the inhibition in [13] and in assay [14] were 0% and 30%, respectively.

Turning to `Cc1ccc(C(=O)NC2CC2)cc1F`, the inhibition was determined as 5% in assay [1]; 16% in assay [2]; 9% in assay [3]; 10% in [4]; 6% in assay [5]; 5% in assay [6]. In addition, the inhibition was determined as 1% in [7]; 8% in assay [8]; 5% in assay [9]; 0% in [10]; 23% in assay [11]; 2% in assay [12]. For the same compound, the inhibition came to 7% in assay [13] and 15% in assay [14].

Consider `Cc1ccc(NC(=O)Nc2cc(C(C)(C)C)nn2-c2ccccc2)cc1`, for which the inhibition in assay [1] was determined as 0%; in [2], 2%; in assay [3], 12%; in assay [4] it was 27%; in assay [5], 6%; in [6], 2%. Further, the inhibition in [7] stood at 3%; in assay [8], 24%; in assay [9], 7%; in assay [10], 0%; in assay [11], 34%; in assay [12] it was 0%. Also, the inhibition in assay [13] and in assay [14] was 0% in each case.

In the case of `c1ccc(Nc2ncccn2)cc1`, the inhibition was 0% in assay [1]; 74% in [2]; 16% in assay [3]; 19% in assay [4]; 10% in assay [5]; 4% in assay [6]. The inhibition in [7] was 35%; in [8], 24%; in [9], 89%; in assay [10], 15%; in assay [11], 55%; in assay [12], 3%. For the same compound, the results for the inhibition in [13] and in assay [14] were 24% and 97%, respectively.

Take `O=C(Nc1ccccc1)Nc1cccc(C(F)(F)F)c1`: the inhibition in [1] was 4%; in assay [2], 0%; in assay [3], 6%; in [4], 10%; in [5], 6%; in assay [6], 0%. Also, the inhibition was 6% in [7]; 16% in [8]; 0% in assay [10]; 19% in [11]; 5% in [12]; 0% in assay [13]. The compound also returned an inhibition in assay [14] of 12%.

`c1cnc2[nH]ccc2c1`: the inhibition in assay [1] was 0%; in assay [2], 15%; in [3] it was 19%; in [4], 22%; in [5] it was 3%; in assay [6] it was 0%. Also, the inhibition in assay [7] was found to be 9%; in [9], 36%; in assay [10], 5%; in [11], 21%; in assay [12], 4%; in [13], 5%. Besides, the inhibition in assay [14] was 94%.

As for `c1ccc(Nc2ccccc2)cc1`, the inhibition stood at 5% in assay [1]; 1% in assay [2]; 9% in assay [3]; 7% in assay [4]; 0% in [5]; 0% in [6]. The inhibition in assay [7] was 9%; in assay [8], 7%; in [9], 0%; in [10], 44%; in [11] it was 13%; in [12], 4%.
